Source: PMC8844856, “Structural basis of cyclic oligoadenylate binding to the transcription factor Csa3 outlines cross talk between type III and type I CRISPR systems” (The Journal of Biological Chemistry, 2022)

Columns and labels:
[1] = target: T1, His6-Csa3Sso (WT) (Saccharolobus solfataricus, UniProt Q97Y88); experiment: Microscale thermophoresis (MST) binding of cOA ligands to wildtype Csa3Sso; settings: MST
T1 construct: made in house; host or cells: E. coli BL21(DE3)-pLysS
T1 sequence (Q97Y88 1-237): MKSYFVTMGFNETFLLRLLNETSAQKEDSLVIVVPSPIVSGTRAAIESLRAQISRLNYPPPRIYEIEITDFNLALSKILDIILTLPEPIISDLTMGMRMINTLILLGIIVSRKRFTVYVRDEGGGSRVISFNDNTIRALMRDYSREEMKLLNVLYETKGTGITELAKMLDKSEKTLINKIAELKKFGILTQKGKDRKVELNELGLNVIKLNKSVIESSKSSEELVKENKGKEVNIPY
Description: The ligand-binding specificity of Csa3Sso (WT) and the role of Csa3Sso residues in ligand binding were determined by microscale Thermophoresis (MST). Wildtype or mutant His6-Csa3Sso (200 nM) was fluorescently labeled in 2× binding buffer (10 mM Na/K phosphate, pH 5.8, 10 mM MgCl2, 25 mM NaCl, and 0.05% Tween 20) using 100 nM RED-Tris NTA His-Tag labeling dye (Nanotemper Technologies, Inc) and incubated in the dark at room temperature for 30 min. Two millimolar stocks of synthetic ligands including cA3, cA4, and cA6 (Biolog Life Science Institute) or linear ribonucleotide 5′-rCrArArArA-3′ (Bio-Synthesis Inc) were serially diluted in a 1:1 ratio with nuclease-free water. The labeled proteins were then mixed with ligands in a 1:1 ratio. Only cA4 was used in the MST experiments with the Csa3Sso mutants (2 mM stocks of cA4 were used for F10A, F14A, G96A, and R98A mutants, and 20 μM stocks were used for E122A and E122Q mutants). The mixtures of proteins and ligands were incubated in the dark at room temperature for 30 min. The precipitated material was removed by centrifugation at 6000 rpm for 5 min. The supernatants were then loaded into Monolith NT.115 Series Premium capillaries in triplicate, and the thermophoresis was detected with 40% excitation power and 40% IR-laser power for an on-time of 20 s at 25 °C.
The binding affinities of oligonucleotides and PCas4a to Csa3Sso (WT and mutants) were analyzed according to the law of mass action in a standard fitting mode of MO.Affinity analysis software (version 2.3).

[2] = target: Csa3bSis; set-up: method as in PMID 32983033; settings: surface plasmon resonance; cited from earlier work
[3] = tested on: Csa3bSis binding to the Pcsa1 promoter; set-up: method as in PMID 32983033; settings: in the presence of the cA4 analog in vitro; cited from earlier work

Substance: 5′-rCrArArArA-3′ [5′CAAAA3′]
- specific binding to His6-Csa3Sso [1]: only cA4 exhibited a specific low micromolar binding
- Kd [2]: 46.1 ± 8.14 µM
- fold increase in Csa3bSis binding affinity to the Pcsa1 promoter [3]: ~10 fold
